In article PMC4018225 (Biopharmaceutics & drug disposition, 2013):
Like-named read-outs stand apart in the source and are kept apart here. Marks after values point to notes of the source that are not given here.

Columns and labels:
[1] = format: in vivo, human; conditions: for AUC (weight and dose normalized) / TAC V/F: median [IQR]; for CL/F: human, whole blood, oral
[2] = nonHIV tx, cited from earlier work
[3] = Reference pharmacokinetics of CsA and TAC in nonHIV transplant patients; format: in vivo, human; conditions: nonHIV tx; average for both PI time periods
[4] = HIV-1 infected volunteers; concomitant use of EFV or NVP; cited from earlier work
[5] = HIV infected subjects compared to healthy volunteers; cited from earlier work
[6] = co-medication EFV, wk 28, 52, 104
[7] = co-medication NVP, wk 28, 52, 104

C=CC[C@@H]1/C=C(\C)C[C@H](C)C[C@H](OC)[C@H]2O[C@@](O)(C(=O)C(=O)N3CCCC[C@H]3C(=O)O[C@H](/C(C)=C/[C@@H]3CC[C@@H](O)[C@H](OC)C3)[C@H](C)[C@@H](O)CC1=O)[C@H](C)C[C@@H]2OC [TAC, tacrolimus]
AUC (weight and dose normalized) ([1]; +EFV, wks 2–12): 2170 [936–3261] ng*hr/mL/mg/kg | AUC (weight and dose normalized) ([1]; +EFV, wks 28–104): 1911 [1423–3071] ng*hr/mL/mg/kg | AUC (weight and dose normalized) ([1]; +NVP, wks 2–12): 3644 [3115–5157] ng*hr/mL/mg/kg | AUC (weight and dose normalized) ([1]; +NVP, wks 28–104): 4220 [2703–6229] ng*hr/mL/mg/kg | AUC (weight and dose normalized) ([1]; +PI, wks 2–12): 24996 [18205–41601] ng*hr/mL/mg/kg | AUC (weight and dose normalized) ([1]; +PI, wks 28–104): 34653 [17208–42250] ng*hr/mL/mg/kg | TAC CL/F Ratio to PI [1, 6]: 18.1 | TAC CL/V [1, 6]: 0.068 h⁻¹ | TAC CL/V Ratio to PI [1, 6]: 2.33 | TAC V/F Ratio to PI [1, 6]: 7.78 | TAC V/F [1, 6]: 7.70 [6.22–10.70] L/kg | TAC CL/F Ratio to PI ([1]; co-medication EFV, wks 2–12): 11.5 | TAC CL/V ([1]; co-medication EFV, wks 2–12): 0.074 h⁻¹ | TAC CL/V Ratio to PI ([1]; co-medication EFV, wks 2–12): 1.72 | TAC V/F Ratio to PI ([1]; co-medication EFV, wks 2–12): 6.66 | TAC V/F ([1]; co-medication EFV, wks 2–12): 6.26 [5.42–10.91] L/kg | TAC CL/F Ratio to PI [1, 7]: 8.72 | TAC CL/V [1, 7]: 0.031 h⁻¹ | TAC CL/V Ratio to PI [1, 7]: 1.07 | TAC V/F Ratio to PI [1, 7]: 8.17 | TAC V/F [1, 7]: 8.09 [3.46–15.14] L/kg | TAC CL/F Ratio to PI ([1]; co-medication NVP, wks 2–12): 6.85 | TAC CL/V ([1]; co-medication NVP, wks 2–12): 0.056 h⁻¹ | TAC CL/V Ratio to PI ([1]; co-medication NVP, wks 2–12): 1.31 | TAC V/F Ratio to PI ([1]; co-medication NVP, wks 2–12): 5.20 | TAC V/F ([1]; co-medication NVP, wks 2–12): 4.89 [2.74–6.16] L/kg | TAC CL/F Ratio to PI ([1]; co-medication PI, wk 28, 52): 1 | TAC CL/V ([1]; co-medication PI, wk 28, 52): 0.029 h⁻¹ | TAC CL/V Ratio to PI ([1]; co-medication PI, wk 28, 52): 1 | TAC V/F Ratio to PI ([1]; co-medication PI, wk 28, 52): 1 | TAC V/F ([1]; co-medication PI, wk 28, 52): 0.99 [0.31–1.19] L/kg | TAC CL/F Ratio to PI ([1]; co-medication PI, wks 2–12): 1 | TAC CL/V ([1]; co-medication PI, wks 2–12): 0.043 h⁻¹ | TAC CL/V Ratio to PI ([1]; co-medication PI, wks 2–12): 1 | TAC V/F Ratio to PI ([1]; co-medication PI, wks 2–12): 1 | TAC V/F ([1]; co-medication PI, wks 2–12): 0.94 [0.64–1.29] L/kg | CL/F ([1]; 0.003 mg/kg): 0.483 mL/min/kg | CL/F ([1]; 0.007 mg/kg): 0.667 mL/min/kg | CL/F ([1]; 0.046 mg/kg): 8.77 mL/min/kg | CL/F ([1]; 0.058 mg/kg): 7.68 mL/min/kg | TAC apparent volume of distribution ratio, PI compared to EFV ([1]; in vivo): 0.15 | TAC apparent volume of distribution ratio, PI compared to NVP ([1]; in vivo): 0.19 | increase in drug exposure on concomitant administration with PIs ([1]; in vivo): 2–50 fold | increase in exposure (AUC/dose) in the presence of PIs relative to NNRTIs ([1]; in vivo): more than 10 fold | TAC CL/F ratio, PI compared to EFV ([1]; weeks 2–12): 0.09 | TAC CL/F ratio, PI compared to NVP ([1]; weeks 2–12): 0.15 | TAC CL/F [2]: 5.83 mL/min/kg | TAC CL/V [2]: 0.058 h⁻¹ | TAC V/F [2]: 6 L/kg | AUC (weight and dose normalized) ([2]; wks 2–12): 2000 to 5000 ng·h/mL/mg/kg | AUC (weight and dose normalized) ([2]; wks 28–104): 2000 to 5000 ng·h/mL/mg/kg | TAC CL/F Ratio to PI [3]: (10.1) ^* | TAC CL/V Ratio to PI [3]: (1.6) ^* | TAC V/F Ratio to PI [3]: (6.2) ^*

Cc1cccc(C)c1OCC(=O)N[C@@H](Cc1ccccc1)[C@@H](O)C[C@H](Cc1ccccc1)NC(=O)[C@H](C(C)C)N1CCCNC1=O [lopinavir]
increase in apparent oral clearance [4]: 39%

Cc1ncc2n1-c1ccc(Cl)cc1C(c1ccccc1F)=NC2 [midazolam]
decrease in clearance [5]: ~ 50%
